Experimental data: the supplement of paper PMC10307832

Legend:
Test in all cases: relative viability (nuclei count vs DMSO), 5 days (fraction); higher = more cells survive
[1] = compound: CC1=CN=C(N=C1C2=CNC(=C2)C(=O)N[C@H](CO)C3=CC(=CC=C3)Cl)NC4=C(C=C(C=C4)F)Cl [VX-11e] + C[C@]1(O)C[C@@H](c2nc(-c3ccc4ccc(-c5ccccc5)nc4c3)c3c(N)nccn32)C1 [Linsitinib] (partner 1 µM)
How it was run: (§1)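 Relative viability is defined as nuclei in treated wells over nuclei in vehicle wells. Duplicate plates were run and medians reported. Lung cancer cell lines in 1536-well plates were dosed by pin tool one day after seeding, with one drug or with a fixed anchor-drug dose plus five library-drug doses (not always all listed) in √10 steps, and nuclei were counted after 5 days.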

[2] = compound: CC1=CN=C(N=C1C2=CNC(=C2)C(=O)N[C@H](CO)C3=CC(=CC=C3)Cl)NC4=C(C=C(C=C4)F)Cl [VX-11e] + CS(=O)(=O)N1CCN(Cc2cc3nc(-c4cccc5[nH]ncc45)nc(N4CCOCC4)c3s2)CC1 [Pictilisib] (partner 1 µM)
How it was run: as §1

[3] = compound: CC1=CN=C(N=C1C2=CNC(=C2)C(=O)N[C@H](CO)C3=CC(=CC=C3)Cl)NC4=C(C=C(C=C4)F)Cl [VX-11e] + Cc1nc(NC(=O)N2CCC[C@H]2C(N)=O)sc1-c1ccnc(C(C)(C)C(F)(F)F)c1 [Alpelisib] (partner 2 µM)
How it was run: as §1

[4] = compound: CC1=CN=C(N=C1C2=CNC(=C2)C(=O)N[C@H](CO)C3=CC(=CC=C3)Cl)NC4=C(C=C(C=C4)F)Cl [VX-11e] + Nc1ncn([C@H]2C[C@H](O)[C@@H](CO)O2)c(=O)n1 [Decitabine] (partner 2 µM)
How it was run: as §1

Row | Cell Line | relative viability ([1]; first compound 0.04 µM) | relative viability ([1]; first compound 0.1265 µM) | relative viability ([1]; first compound 0.4 µM) | relative viability ([1]; first compound 1.265 µM) | relative viability ([1]; first compound 4 µM) | relative viability ([2]; first compound 0.04 µM) | relative viability ([2]; first compound 0.1265 µM) | relative viability ([2]; first compound 0.4 µM) | relative viability ([2]; first compound 1.265 µM) | relative viability ([2]; first compound 4 µM) | relative viability ([3]; first compound 0.04 µM) | relative viability ([3]; first compound 0.1265 µM) | relative viability ([3]; first compound 0.4 µM) | relative viability ([3]; first compound 1.265 µM) | relative viability ([3]; first compound 4 µM) | relative viability ([4]; first compound 0.04 µM) | relative viability ([4]; first compound 0.1265 µM) | relative viability ([4]; first compound 0.4 µM) | relative viability ([4]; first compound 1.265 µM) | relative viability ([4]; first compound 4 µM)
1 | HCC-15 | 0.868 | 0.815 | 0.746 | 0.497 | 0.217 | 0.619 | 0.682 | 0.32 | 0.334 | 0.168 | 0.902 | 0.878 | 0.753 | 0.408 | 0.165 | 0.641 | 0.603 | 0.225 | 0.338 | 0.274
2 | NCI-H2347 | 1.07 | 0.927 | 0.798 | 0.7 | 0.496 | 0.813 | 0.662 | 0.491 | 0.36 | 0.298 | 1.15 | 0.991 | 1 | 0.618 | 0.379 | 0.604 | 0.554 | 0.504 | 0.534 | 0.661
3 | NCI-H647 | 1.1 | 1.05 | 1.09 | 0.674 | 0.378 | 0.32 | 0.26 | 0.122 | 0.381 | 0.132 | 1.32 | 1.19 | 1.05 | 0.551 | 0.282 | 0.378 | 0.355 | 0.349 | 0.537 | 0.449
4 | NCI-H1944 | 1.08 | 1.09 | 0.998 | 0.862 | 0.552 | 0.301 | 0.308 | 0.306 | 0.309 | 0.281 | 0.843 | 0.809 | 0.785 | 0.557 | 0.399 | 0.461 | 0.509 | 0.412 | 0.41 | 0.374
5 | SK-MES-1 | 1.08 | 1.03 | 1.07 | 1.05 | 0.691 | 0.337 | 0.31 | 0.316 | 0.249 | 0.168 | 1.31 | 0.815 | 0.718 | 0.644 | 0.208 | 0.341 | 0.384 | 0.363 | 0.4 | 0.272
6 | NCI-H2085 | 0.987 | 0.818 | 0.834 | 0.9 | 0.649 | 0.361 | 0.51 | 0.441 | 0.452 | 0.357 | 1.11 | 0.88 | 0.913 | 0.842 | 0.699 | 0.658 | 0.542 | 0.525 | 0.539 | 0.553
